Where “and” joins values, the source holds several entries; their conditions need not be identical. Equal entries are not always repeated. Where two headings read alike, the source gives them in different places. Square brackets hold non-standard residues; d marks the D form. Peptide text beside a SMILES is read from it. pGlu = O=C1CC[C@@H](C(=O)O)N1

The term IC50 denotes the point on the concentration scale where inhibition reaches its midpoint. For orientation: inhibition means the percentage by which the read-out fell short of the control.

This assay has as its target T1, ACE from pig kidney (Sus scrofa, UniProt F1RRW5).
T1 construct: 1 mU ACE from pig kidney (EC 3.4.15.1 (Sigma)); purchased Sigma; host or cells: pig kidney (tissue-derived enzyme)
T1 sequence (F1RRW5 34-1309): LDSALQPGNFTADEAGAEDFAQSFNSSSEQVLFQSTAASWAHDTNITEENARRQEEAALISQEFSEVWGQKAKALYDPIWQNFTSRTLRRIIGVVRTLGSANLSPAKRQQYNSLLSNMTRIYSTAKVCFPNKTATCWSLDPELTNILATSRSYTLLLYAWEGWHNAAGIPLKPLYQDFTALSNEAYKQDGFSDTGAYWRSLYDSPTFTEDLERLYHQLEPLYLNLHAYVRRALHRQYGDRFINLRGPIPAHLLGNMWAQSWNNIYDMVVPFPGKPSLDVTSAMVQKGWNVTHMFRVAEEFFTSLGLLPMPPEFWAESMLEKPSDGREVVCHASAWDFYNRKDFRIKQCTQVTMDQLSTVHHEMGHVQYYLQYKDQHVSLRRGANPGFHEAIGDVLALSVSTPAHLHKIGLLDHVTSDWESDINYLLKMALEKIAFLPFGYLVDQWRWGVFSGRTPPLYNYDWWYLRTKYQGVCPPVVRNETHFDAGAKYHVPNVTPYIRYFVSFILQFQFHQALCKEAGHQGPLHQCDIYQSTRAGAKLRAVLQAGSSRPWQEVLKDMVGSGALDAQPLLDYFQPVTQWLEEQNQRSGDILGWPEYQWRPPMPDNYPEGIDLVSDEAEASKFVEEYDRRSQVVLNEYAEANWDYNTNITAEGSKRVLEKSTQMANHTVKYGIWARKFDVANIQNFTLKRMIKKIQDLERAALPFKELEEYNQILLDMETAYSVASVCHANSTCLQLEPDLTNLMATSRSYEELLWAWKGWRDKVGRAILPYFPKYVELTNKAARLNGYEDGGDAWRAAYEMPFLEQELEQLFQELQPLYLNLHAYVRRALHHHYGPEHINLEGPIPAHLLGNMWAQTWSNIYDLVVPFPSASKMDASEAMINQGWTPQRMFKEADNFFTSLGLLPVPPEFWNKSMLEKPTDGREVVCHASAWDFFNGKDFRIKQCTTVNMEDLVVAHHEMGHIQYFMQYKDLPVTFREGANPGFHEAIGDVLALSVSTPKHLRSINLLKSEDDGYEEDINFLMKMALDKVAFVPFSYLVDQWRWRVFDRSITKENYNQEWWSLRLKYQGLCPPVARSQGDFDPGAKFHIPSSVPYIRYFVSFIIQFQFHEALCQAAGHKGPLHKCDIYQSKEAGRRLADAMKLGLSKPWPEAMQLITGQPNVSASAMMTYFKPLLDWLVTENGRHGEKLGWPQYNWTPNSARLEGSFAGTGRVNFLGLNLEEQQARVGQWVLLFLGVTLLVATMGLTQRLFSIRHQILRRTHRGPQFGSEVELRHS
The assay is described as follows: biochemical. Format: biochemical. From the text: These peptides were investigated for their inhibitory effect using an in vitro-ACE-inhibitor-assay with an angiotensin-converting-enzyme derived from pig kidney. Hippuryl-histidyl-leucin was used as a substrate. […] A concrete experimental description is given below.
The principle of the ACE-inhibition-assay was established by Chejung, H. S., Cushman, D. W.: “Inhibition of homogenous angiotensin converting enzyme of rabbit lung by synthetic venom peptides of Bothrops jararaca.” in Biochimica et Biophysica Acta 293, 451-563 (1973).
The assay was performed in 96 well HTRF-plates (Packard). The concentrations used for each well were:
1 mU ACE from pig kidney (EC 3.4.15.1 (Sigma)) in 30 μl of assay buffer (25 mM HEPES; 0,3 M NaCl, pH 8,2) and 20 μl inhibitor dissolved in assay buffer (0,35-200 μM). The reaction was started by adding 50 μl of 2 mM hippuryl-histidyl-leucin (Sigma) in assay buffer. The reaction was performed at room temperature (22° C.) for 30 minutes and terminated by adding 50 μl of 2 M NaOH. Afterwards 50 μl of 0,5% ortho-phtalaldehyd (Sigma) in methanol were added, 5 minutes later followed by 50 μl of 2,5 M HCl-solution to stabilize the developed fluorescence product.
The results were used to calculate the % inhibition. The IC50-values were determined graphically from a curve showing the dose-reaction ratio.
In order to minimize errors due to time-dependent differences, all pipetting steps were performed in a precise time schedule.

The mark [1] stands for this setting: inhibitor 0.78125 μM, replicates A-D.
[2] abbreviates: inhibitor 1.5625 μM, replicates A-D.
The mark [3] stands for this setting: inhibitor 3.125 μM, replicates A-D.
Where [4] appears, read: inhibitor 6.25 μM, replicates A-D.
[5] abbreviates: inhibitor 12.5 μM, replicates A-D.
Where [6] appears, read: inhibitor 25 μM, replicates A-D.
[7] abbreviates: inhibitor 50 μM, replicates A-D.
Where [8] appears, read: inhibitor 100 μM, replicates A-D.
[9] abbreviates: inhibitor 200 μM, replicates A-D.

`CC[C@H](C)[C@H](NC(=O)[C@H](CCC(N)=O)NC(=O)[C@@H]1CCCN1C(=O)[C@H](CCCNC(=N)N)NC(=O)[C@@H]1CCCN1C(=O)[C@H](Cc1c[nH]c2ccccc12)NC(=O)[C@@H]1CCC(=O)N1)C(=O)N1CCC[C@H]1C(=O)N1CCC[C@H]1C(=O)O` [BPP9a, reference compound] returned an IC50 of 0.097 µM. Also, where the note is “inhibitor 0.0097 μM, replicates A-D”, the “fluorescence reading (ACE Inhibitor Assay)” value is 710140 and 732003 and 790803 and 704452. For the setting “inhibitor 0.0097 μM, replicates A-D, 0.0097 µM”, the “% inhibition (ACE Inhibitor Assay)” value was 17.32% and 14.76% and 7.86% and 17.99%. The “fluorescence reading (ACE Inhibitor Assay)” value (inhibitor 0.0195 μM, replicates A-D) was 651703 and 661931 and 697146 and 649942. Further, the “% inhibition (ACE Inhibitor Assay)” value (inhibitor 0.0195 μM, replicates A-D, 0.0195 µM) was 22.97% and 18.85% and 24.38%. The “fluorescence reading (ACE Inhibitor Assay)” value (inhibitor 0.039 μM, replicates A-D) was 555538 and 591749 and 454421 and 628809. Besides, for the setting “inhibitor 0.039 μM, replicates A-D, 0.039 µM”, the “% inhibition (ACE Inhibitor Assay)” value is 35.44% and 31.2% and 47.3% and 26.86%. Besides, under “inhibitor 0.078 μM, replicates A-D”, the “fluorescence reading (ACE Inhibitor Assay)” value is 487053 and 445495 and 462323 and 446174. Besides, the “% inhibition (ACE Inhibitor Assay)” value (inhibitor 0.078 μM, replicates A-D, 0.078 µM) is 48.35% and 46.37% and 48.26%. Moreover, for the setting “inhibitor 0.15625 μM, replicates A-D”, the “fluorescence reading (ACE Inhibitor Assay)” value is 317736 and 311280 and 262186 and 309352. For the same molecule, the “% inhibition (ACE Inhibitor Assay)” value (inhibitor 0.15625 μM, replicates A-D, 0.15625 µM) was 64.08% and 69.83% and 64.3%. For the same molecule, the “fluorescence reading (ACE Inhibitor Assay)” value (inhibitor 0.3125 μM, replicates A-D) is 143514 and 147997 and 149103 and 141700. The “% inhibition (ACE Inhibitor Assay)” value (inhibitor 0.3125 μM, replicates A-D, 0.3125 µM) was 83.22% and 83.09% and 83.96%. For the same molecule, the “fluorescence reading (ACE Inhibitor Assay)” value (inhibitor 0.625 μM, replicates A-D) was 60333 and 60929 and 57514 and 55616. Further, the “% inhibition (ACE Inhibitor Assay)” value (inhibitor 0.625 μM, replicates A-D, 0.625 µM) is 93.43% and 93.82% and 94.05%. For the same molecule, the “fluorescence reading (ACE Inhibitor Assay)” value (inhibitor 1.25 μM, replicates A-D) is 27485 and 26994 and 27156 and 25833. In addition, the “% inhibition (ACE Inhibitor Assay)” value (inhibitor 1.25 μM, replicates A-D, 1.25 µM) was 97.4% and 97.38% and 97.54%. Also, the “fluorescence reading (ACE Inhibitor Assay)” value (inhibitor 2.5 μM, replicates A-D) was 13903 and 14148 and 15119 and 13979. Also, under “inhibitor 2.5 μM, replicates A-D, 2.5 µM”, the “% inhibition (ACE Inhibitor Assay)” value was 98.91% and 98.79% and 98.93%. Where the note is “inhibitor 5 μM, replicates A-D”, the “fluorescence reading (ACE Inhibitor Assay)” value is 9634 and 9626 and 9656 and 10561. Further, the “% inhibition (ACE Inhibitor Assay)” value (inhibitor 5 μM, replicates A-D, 5 µM) was determined as 99.33%. Also, the inhibition at 0.0195 µM (read-out: % inhibition (ACE Inhibitor Assay), inhibitor 0.0195 μM, replicates A-D) stood at 24.2%. Besides, the inhibition at 0.078 µM (read-out: % inhibition (ACE Inhibitor Assay), inhibitor 0.078 μM, replicates A-D) amounted to 43.5%. The inhibition at 0.15625 µM (read-out: % inhibition (ACE Inhibitor Assay), inhibitor 0.15625 μM, replicates A-D) came out at 63.3%. For the same molecule, the inhibition at 0.3125 µM (read-out: % inhibition (ACE Inhibitor Assay), inhibitor 0.3125 μM, replicates A-D) was found to be 83.8%. Besides, the inhibition at 0.625 µM (read-out: % inhibition (ACE Inhibitor Assay), inhibitor 0.625 μM, replicates A-D) amounted to 93.5%. For the same molecule, under “read-out: % inhibition (ACE Inhibitor Assay), inhibitor 1.25 μM, replicates A-D”, the inhibition at 1.25 µM is 97.3%. Moreover, the inhibition at 2.5 µM (read-out: % inhibition (ACE Inhibitor Assay), inhibitor 2.5 μM, replicates A-D) was 98.9%. The inhibition at 5 µM (read-out: % inhibition (ACE Inhibitor Assay), inhibitor 5 μM, replicates A-D) amounted to 99.4%.
`CC(C)C[C@H](NC(=O)[C@@H]1CCCN1C(=O)[C@@H](N)CO)C(=O)N1CCC[C@H]1C(=O)N[C@@H](CCC(=O)O)C(=O)N[C@H](C(=O)N1CCC[C@H]1C(=O)N1CCC[C@H]1C(=O)O)C(C)C` [Peptide S547]: the concentration for half-maximal inhibition (IC50) (ACE from pig kidney, determined graphically, read-out: IC50-value (ACE inhibition)) came to 27 µM. Also, the “fluorescence reading (ACE Inhibitor Assay)” value (inhibitor 0.39 μM, replicates A-D) was 968576 and 976911 and 1033152 and 933502; the “fluorescence reading (ACE Inhibitor Assay)” value under setting [1] is 935415 and 959358 and 928034 and 939702; the “fluorescence reading (ACE Inhibitor Assay)” value under setting [2] was 885259 and 942952 and 905782 and 900439; the “fluorescence reading (ACE Inhibitor Assay)” value under setting [3] was 853233 and 874120 and 919377 and 814056; the “fluorescence reading (ACE Inhibitor Assay)” value under setting [4] is 737068 and 749780 and 773384 and 715138; the “fluorescence reading (ACE Inhibitor Assay)” value under setting [5] is 661504 and 674042 and 682861 and 660883. The “fluorescence reading (ACE Inhibitor Assay)” value is, setting by setting: under setting [6], 561516 and 529553 and 559590 and 501835; under setting [7], 367055 and 382045 and 460226 and 346051; under setting [8], 229409 and 229360 and 232610 and 214324; under setting [9], 115847 and 125213 and 123605 and 113488. In addition, the “% inhibition (ACE Inhibitor Assay)” value was 6.82% and 6.02% and 0.575% and 10.22% (inhibitor 0.39 μM, replicates A-D, 0.39 µM); 7.72% and 10.75% and 9.62% (inhibitor 0.78125 μM, replicates A-D, 0.78125 µM); 9.3% and 12.9% and 13.42% (inhibitor 1.5625 μM, replicates A-D, 1.5625 µM); 15.96% and 11.6% and 21.78% (inhibitor 3.125 μM, replicates A-D, 3.125 µM); 28% and 25.72% and 31.35% (inhibitor 6.25 μM, replicates A-D, 6.25 µM); 35.33% and 34.48% and 36.6% (inhibitor 12.5 μM, replicates A-D, 12.5 µM). For the same molecule, the “% inhibition (ACE Inhibitor Assay)” value (inhibitor 25 μM, replicates A-D, 25 µM) is 49.3% and 46.4% and 52%; the “% inhibition (ACE Inhibitor Assay)” value (inhibitor 50 μM, replicates A-D, 50 µM) is 63.59% and 56.02% and 67.07%; the “% inhibition (ACE Inhibitor Assay)” value (inhibitor 100 μM, replicates A-D, 100 µM) was 78.05% and 79.82%; the “% inhibition (ACE Inhibitor Assay)” value (inhibitor 200 μM, replicates A-D, 200 µM) was 88.45% and 88.6% and 89.58%. Under setting [1], this molecule had an inhibition at 0.78125 µM of 10%. The molecule also gave an inhibition at 1.5625 µM under setting [2] of 14.9%. Also, the inhibition at 3.125 µM under setting [3] was found to be 18%. The molecule also yielded an inhibition at 6.25 µM under setting [4] of 29.2%. Besides, under setting [5], the inhibition at 12.5 µM is 36.5%. For the same molecule, under setting [6], 25 µM produced 46.2% inhibition. For the same molecule, the inhibition at 50 µM under setting [7] came to 65%. In addition, the inhibition at 100 µM under setting [8] is 78.4%. Besides, at 200 µM the inhibition under setting [9] was 89.4%.
The molecule `CC[C@H](C)[C@H](NC(=O)[C@H](CC(C)C)NC(=O)[C@@H]1CCCN1C(=O)[C@H](CCSC)NC(=O)[C@@H]1CCC(=O)N1)C(=O)N1CCC[C@H]1C(=O)N[C@@H](CCCNC(=N)N)C(=O)N[C@@H](C)C(=O)N[C@@H](CO)C(=O)N[C@@H](CC(=O)O)C(=O)N[C@@H](CCC(=O)O)C(=O)N[C@@H](CC(N)=O)C(=O)N[C@H](C(=O)N1CCC[C@H]1C(=O)N1CCC[C@H]1C(=O)O)C(C)C` [Peptide S682] ([pGlu]MPLIPRASDENVPP-OH) came in with an IC50 of 150 µM.
